Patent US6737383B1, “Herbicidal oxadiazolidines” (priority 1999, dated 2004)

How the values were obtained:
soybean = test: Test B pre/postemergence soybean; assay type: in vivo, Glycine max
Method in brief: (§1)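 Herbicidal effect was estimated by eye on a ten-point control scale after plants spent twelve to sixteen days in a greenhouse following soil or foliar treatment. Foliar sprays targeted plants at one to four leaves; all doses were formulated in a non-phytotoxic solvent with surfactant.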

wheat = test: Test B pre/postemergence wheat; assay type: in vivo, Triticum aestivum
Method in brief: as §1

sugar beet = test: Test B pre/postemergence sugar beet; assay type: in vivo, Beta vulgaris
Method in brief: as §1

velvetleaf = test: Test B pre/postemergence velvetleaf; assay type: in vivo, Abutilon theophrasti
Method in brief: as §1

wild oat = test: Test B pre/postemergence wild oat; assay type: in vivo, Avena fatua
Method in brief: as §1

bamyardgrass = test: Test B flood test barnyardgrass; assay type: in vivo, Echinochloa crus-galli
Method in brief: (§2)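 Plants were grown to the 2-leaf stage before treatment with test chemical, then held in a greenhouse for twelve to sixteen days. Injury was visually rated against untreated controls on a 0–10 scale, where 0 is no effect and 10 is complete control.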

duck salad = test: Test B flood test duck salad; assay type: in vivo, Heteranthera limosa
Method in brief: as §2

corn = test: Test B pre/postemergence corn; assay type: in vivo, Zea mays
Method in brief: as §1

cocklebur = test: Test B pre/postemergence cocklebur; assay type: in vivo, Xanthium strumarium
Method in brief: as §1

smallflower flatsedge = test: Test B flood test smallflower flatsedge; assay type: in vivo, Cyperus difformis
Method in brief: as §2

purple nutsedge = test: Test B pre/postemergence purple nutsedge; assay type: in vivo, Cyperus rotundus
Method in brief: as §1

morningglory = test: Test B pre/postemergence morningglory; assay type: in vivo, Ipomoea hederacea
Method in brief: as §1

pigweed = test: Test B pre/postemergence pigweed; assay type: in vivo, Amaranthus retroflexus
Method in brief: as §1

bedstraw = test: Test B pre/postemergence bedstraw; assay type: in vivo, Galium aparine; settings: Preemergence
Method in brief: as §1

surinam grass = test: Test B pre/postemergence surinam grass; assay type: in vivo, Brachiaria decumbens
Method in brief: as §1

blackgrass = test: Test B pre/postemergence blackgrass; assay type: in vivo, Alopecurus myosuroides
Method in brief: as §1

rice = test: Test B flood test rice; assay type: in vivo, Oryza sativa
Method in brief: as §2

crabgrass = test: Test B pre/postemergence crabgrass; assay type: in vivo, Digitaria sanguinalis
Method in brief: as §1

giant foxtail = test: Test B pre/postemergence giant foxtail; assay type: in vivo, Setaria faberii
Method in brief: as §1

rape = test: Test B pre/postemergence rape; assay type: in vivo, Brassica napus
Method in brief: as §1

[1] = Postemergence, Rate 125 g/ha, scale of 0 to 10 where 0 is no effect and 10 is complete control
[2] = Postemergence, Rate 500 g/ha, scale of 0 to 10 where 0 is no effect and 10 is complete control
[3] = Preemergence, Rate 62 g/ha, scale 0 to 10 (0 no effect, 10 complete control)
[4] = Preemergence, Rate 125 g/ha, scale of 0 to 10 where 0 is no effect and 10 is complete control
[5] = Preemergence, Rate 500 g/ha, scale of 0 to 10 where 0 is no effect and 10 is complete control
[6] = Postemergence, Rate 250 g/ha, scale of 0 to 10, 0 is no effect, 10 is complete control
[7] = Rate 62 g/ha, flood test species, Pre-emergence, visual evaluation after twelve to sixteen days
[8] = Rate 125 g/ha, under heading Pre-emergence, flood test species, visual evaluation after twelve to sixteen days
[9] = Rate 250 g/ha, Pre-emergence (flood test species), scale 0 to 10, 0 is no effect, 10 is complete control
[10] = Rate 500 g/ha, Pre-emergence section of Table B, 0 to 10 scale (0 no effect, 10 complete control)
[11] = Postemergence, Rate 62 g/ha, scale of 0 to 10, 0 is no effect, 10 is complete control

SMILES: CC(C)N(C(=O)n1oc(=O)n(C(C)CBr)c1=O)c1ccc(F)cc1F (stereo not drawn) [Compound 594]
- Plant response rating, Soybean (soybean; [1]): 0
- Plant response rating, Soybean (soybean; [2]): 4
- Soybean plant response rating (soybean; [3]): 0
- Soybean plant response rating (soybean; [4]): 0
- Plant response rating, Soybean (soybean; [5]): 4
- Plant response rating, Wheat (wheat; [1]): 0
- Wheat plant response rating (wheat; [6]): 0
- Plant response rating, Wheat (wheat; [2]): 0
- Wheat plant response rating (wheat; [3]): 0
- Wheat plant response rating (wheat; [4]): 0
- Plant response rating, Wheat (wheat; [5]): 2
- Plant response rating, Sugarbeets (sugar beet; [1]): 5
- Sugarbeets plant response rating (sugar beet; [6]): 5
- Plant response rating, Sugarbeets (sugar beet; [2]): 5
- Sugarbeets plant response rating (sugar beet; [3]): 0
- Sugarbeets plant response rating (sugar beet; [4]): 0
- Plant response rating, Sugarbeets (sugar beet; [5]): 8
- Plant response rating, Velvetleaf (velvetleaf; [1]): 3
- Velvetleaf plant response rating (velvetleaf; [6]): 3
- Plant response rating, Velvetleaf (velvetleaf; [2]): 5
- Velvetleaf plant response rating (velvetleaf; [3]): 2
- Velvetleaf plant response rating (velvetleaf; [4]): 4
- Plant response rating, Velvetleaf (velvetleaf; [5]): 7
- Plant response rating, Wild oats (wild oat; [1]): 0
- Wild oats plant response rating (wild oat; [6]): 0
- Plant response rating, Wild oats (wild oat; [2]): 0
- Wild oats plant response rating (wild oat; [3]): 0
- Wild oats plant response rating (wild oat; [4]): 0
- Plant response rating, Wild oats (wild oat; [5]): 5
- Plant response rating, Barnyardgrass (0 to 10 scale, 0 is no effect, 10 is complete control) (bamyardgrass; [7]): 0
- Barnyardgrass plant response rating (0 to 10 scale, 0 is no effect, 10 is complete control) (bamyardgrass; [8]): 0
- Barnyardgrass plant response rating (bamyardgrass; [9]): 0
- Barnyardgrass plant response rating (bamyardgrass; [10]): 0
- Plant response rating, Ducksalad (0 to 10 scale, 0 is no effect, 10 is complete control) (duck salad; [7]): 0
- Ducksalad plant response rating (0 to 10 scale, 0 is no effect, 10 is complete control) (duck salad; [8]): 0
- Ducksalad plant response rating (duck salad; [9]): 0
- Ducksalad plant response rating (duck salad; [10]): 0
- Corn plant response rating (corn; [11]): 0
- Plant response rating, Corn (corn; [1]): 0
- Corn plant response rating (corn; [6]): 0
- Plant response rating, Corn (corn; [2]): 0
- Corn plant response rating (corn; [3]): 0
- Corn plant response rating (corn; [4]): 0
- Corn plant response rating (0 to 10 scale) (corn; Preemergence, Rate 250 g/ha): 2
- Plant response rating, Corn (corn; [5]): 4
- Cocklebur plant response rating (cocklebur; [11]): 0
- Plant response rating, Cocklebur (cocklebur; [1]): 0
- Cocklebur plant response rating (cocklebur; [6]): 3
- Plant response rating, Cocklebur (cocklebur; [2]): 4
- Cocklebur plant response rating (cocklebur; [4]): 0
- Cocklebur plant response rating (0 to 10 scale) (cocklebur; Preemergence, Rate 250 g/ha): 0
- Plant response rating, Cocklebur (cocklebur; [5]): 2
- Plant response rating, S. Flatsedge (0 to 10 scale, 0 is no effect, 10 is complete control) (smallflower flatsedge; [7]): 0
- S. Flatsedge plant response rating (0 to 10 scale, 0 is no effect, 10 is complete control) (smallflower flatsedge; [8]): 0
- S. Flatsedge plant response rating (smallflower flatsedge; [9]): 0
- S. Flatsedge plant response rating (smallflower flatsedge; [10]): 0
- Nutsedge plant response rating (purple nutsedge; [11]): 0
- Plant response rating, Nutsedge (purple nutsedge; [1]): 0
- Nutsedge plant response rating (purple nutsedge; [6]): 3
- Plant response rating, Nutsedge (purple nutsedge; [2]): 3
- Nutsedge plant response rating (purple nutsedge; [3]): 0
- Nutsedge plant response rating (purple nutsedge; [4]): 0
- Plant response rating, Nutsedge (purple nutsedge; [5]): 6
- Morningglory plant response rating (morningglory; [11]): 0
- Plant response rating, Morningglory (morningglory; [1]): 2
- Morningglory plant response rating (morningglory; [6]): 2
- Plant response rating, Morningglory (morningglory; [2]): 7
- Morningglory plant response rating (morningglory; [3]): 0
- Morningglory plant response rating (morningglory; [4]): 0
- Plant response rating, Morningglory (morningglory; [5]): 6
- Plant response rating, Redroot pigweed (pigweed; [1]): 0
- Redroot pigweed plant response rating (pigweed; [6]): 3
- Plant response rating, Redroot pigweed (pigweed; [2]): 4
- Redroot pigweed plant response rating (pigweed; [3]): 0
- Redroot pigweed plant response rating (pigweed; [4]): 0
- Plant response rating, Redroot pigweed (pigweed; [5]): 10
- Bedstraw plant response rating (bedstraw; Rate 62 g/ha, scale 0 to 10 (0 no effect, 10 complete control)): 0
- Bedstraw plant response rating (bedstraw; Rate 125 g/ha, scale of 0 to 10 where 0 is no effect and 10 is complete control): 0
- Bedstraw plant response rating (0 to 10 scale) (bedstraw; Rate 250 g/ha): 2
- Bedstraw plant response rating (bedstraw; Rate 500 g/ha, scale of 0 to 10 where 0 is no effect and 10 is complete control): 9
- B. signalgrass plant response rating (surinam grass; [11]): 0
- Plant response rating, B. signalgrass (surinam grass; [1]): 0
- B. signalgrass plant response rating (surinam grass; [6]): 2
- Plant response rating, B. signalgrass (surinam grass; [2]): 3
- B. signalgrass plant response rating (surinam grass; [3]): 3
- B. signalgrass plant response rating (surinam grass; [4]): 3
- B. signalgrass plant response rating (0 to 10 scale, 0 is no effect, 10 is complete control) (surinam grass; Preemergence, Rate 250 g/ha): 5
- B. signalgrass plant response rating (surinam grass; [5]): 7
- Plant response rating, Blackgrass (blackgrass; [1]): 5
- Blackgrass plant response rating (blackgrass; [6]): 5
- Plant response rating, Blackgrass (blackgrass; [2]): 5
- Blackgrass plant response rating (blackgrass; [3]): 5
- Blackgrass plant response rating (blackgrass; [4]): 5
- Blackgrass plant response rating (0 to 10 scale) (blackgrass; Preemergence, Rate 250 g/ha): 9
- Blackgrass plant response rating (blackgrass; [5]): 9
- Plant response rating, Rice (0 to 10 scale, 0 is no effect, 10 is complete control) (rice; [7]): 0
- Rice plant response rating (0 to 10 scale, 0 is no effect, 10 is complete control) (rice; [8]): 0
- Rice plant response rating (rice; [9]): 0
- Rice plant response rating (rice; [10]): 0
- Crabgrass plant response rating (crabgrass; [11]): 5
- Plant response rating, Crabgrass (crabgrass; [1]): 7
- Crabgrass plant response rating (crabgrass; [6]): 9
- Plant response rating, Crabgrass (crabgrass; [2]): 9
- Crabgrass plant response rating (crabgrass; [3]): 9
- Crabgrass plant response rating (crabgrass; [4]): 9
- Plant response rating, Crabgrass (crabgrass; [5]): 9
- Giant foxtail plant response rating (giant foxtail; [11]): 6
- Plant response rating, Giant foxtail (giant foxtail; [1]): 7
- Giant foxtail plant response rating (giant foxtail; [6]): 7
- Plant response rating, Giant foxtail (giant foxtail; [2]): 9
- Giant foxtail plant response rating (giant foxtail; [3]): 9
- Giant foxtail plant response rating (giant foxtail; [4]): 9
- Plant response rating, Giant foxtail (giant foxtail; [5]): 10
- Rape plant response rating (rape; [11]): 0
- Plant response rating, Rape (rape; [1]): 0
- Rape plant response rating (rape; [6]): 0
- Plant response rating, Rape (rape; [2]): 0
- Rape plant response rating (rape; [3]): 0
- Rape plant response rating (rape; [4]): 0
- Plant response rating, Rape (rape; [5]): 9
